Data taken from patent publication US7919484B2, “Combination therapy” (Xenon Pharmaceuticals Inc., priority 2005, dated 2011).

Assays:
[1] = cited from earlier work
[2] = Effect of SCD-1 inhibitor and rosiglitazone co-administration on body weight in ZDF rats (Example 1); type: in vivo, Male Zucker Diabetic Fatty Rats (ZDF); conditions: mean +/- SEM, Rosi 10 mg/kg, XEN103 5 mg/kg daily po; for Final Body Weight: end of treatment
Experimental: Male Zucker Diabetic Fatty Rats (ZDF) began treatment at the age of 7 weeks of age. Animals were housed three to a cage in a temperature, humidity and light controlled room. The animals were fed a standard rodent diet and had free access to water. Animals were randomized into groups of 9 and placed in the following experimental groups for daily dosing (10:30 am) as described in table 5 below. Animals were weighed three times per week. Food intake was recorded three times per week. XEN 1 is a representative SCD-1 inhibitor compound of the invention. The formulations were: • Vehicle=1% CMC:0.1% Tween 20:10% PG • Rosi-10=rosiglitazone 10 mg/kg in 1% CMC:0.1% Tween 20:10% PG • Rosi-10+XEN1=rosiglitazone 10 mg/kg+XEN1 5 mg/kg in 1% CMC:0.1% Tween 20:10% PG • XEN1=XEN1 5 mg/kg in 1% CMC:0.1% Tween 20:10% PG

SCD enzyme = molecular target: T1, SCD enzyme (Rattus norvegicus, UniProt P07308); experiment: Plasma desaturation index (DI) in ZDF rats after treatment (Example 2); type: in vivo; conditions: plasma triglycerides, mean +/- standard deviation, rosiglitazone 10 mg/kg, XEN1 5 mg/kg
T1 construct: indicator of endogenous SCD1 activity; from tissue; host or cells: living male Zucker Diabetic Fatty rats, dosed orally
T1 sequence (P07308 1-358): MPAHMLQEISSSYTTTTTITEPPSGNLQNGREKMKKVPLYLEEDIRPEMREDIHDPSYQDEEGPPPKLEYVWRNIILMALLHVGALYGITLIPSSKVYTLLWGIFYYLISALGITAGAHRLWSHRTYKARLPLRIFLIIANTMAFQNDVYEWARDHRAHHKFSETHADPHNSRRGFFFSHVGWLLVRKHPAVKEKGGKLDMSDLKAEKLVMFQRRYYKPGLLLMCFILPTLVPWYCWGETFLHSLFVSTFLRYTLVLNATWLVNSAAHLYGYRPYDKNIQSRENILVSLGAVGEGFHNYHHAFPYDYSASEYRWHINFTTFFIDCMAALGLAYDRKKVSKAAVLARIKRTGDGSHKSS
Source text: Another suitable method is to indirectly measure the SCD-1 inhibitors impact on inhibition of SCD enzyme by measuring a subject's desaturation index (‘DI’) after administration of the SCD-1 inhibitors. DI as employed in this specification means the ratio of the product over the substrate for the SCD enzyme as measured from a given tissue sample. This may be calculated using three different equations 18:1n−9/18:0 (oleic acid over stearic acid); 16:1n−7/16:0 (palmitoleic acid over palmitic acid); and/or 16:1n−7+18:1n−7/16:0 (measuring all reaction products of 16:0 desaturation over 16:0 substrate). DI is primarily measured in liver or plasma triglycerides, but may also be measured in other selected lipid fractions from a variety of tissues.
Desaturation indexes were calculated from the fatty acid profile of circulating plasma triglycerides. […] An additional 0.5 mL of chloroform containing 0.05 mg/mL of glyceryl-triheptadecanoin as an internal standard were also added. Samples were thoroughly vortexed and the phases separated by centrifugation at 2000 rpm for 8 minutes. […]
3 desaturation indexes were calculated from the chromatograms based on absolute peak areas; the ratio of palmitoleic acid to palmitic acid (C16:1n7/C16:0), the ratio of oleic acid to stearic acid (C18:1n9/C18:0) and the ratio of palmitoleic acid and vaccenic acid to palmitic acid (C16:1n7+C18:1n7/C16:0).

SCD = molecular target: T2, SCD (Homo sapiens, UniProt O00767); conditions: known from the art; cited from earlier work
T2 sequence (O00767 1-359): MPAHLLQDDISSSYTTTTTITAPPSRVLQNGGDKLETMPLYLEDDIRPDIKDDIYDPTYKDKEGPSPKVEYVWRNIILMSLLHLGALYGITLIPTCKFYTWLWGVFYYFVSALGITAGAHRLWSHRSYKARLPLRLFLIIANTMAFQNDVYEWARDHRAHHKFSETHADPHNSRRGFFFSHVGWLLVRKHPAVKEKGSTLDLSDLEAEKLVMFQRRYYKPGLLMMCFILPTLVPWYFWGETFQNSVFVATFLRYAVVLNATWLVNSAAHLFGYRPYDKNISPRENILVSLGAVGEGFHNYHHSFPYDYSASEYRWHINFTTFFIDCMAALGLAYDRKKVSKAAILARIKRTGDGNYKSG

SMILES: N[C@@H]1C[C@H]1c1ccccc1 (racemic) [Tranylcypromine]
- Side Effect (in words) ([1]; human, in vivo): Adverse weight

SMILES: CN(CCOc1ccc(CC2SC(=O)NC2=O)cc1)c1ccccn1 (centres unmarked) [rosiglitazone]
- Final Body Weight [2]: 485.3 ± 7.3 g
- Body Weight Gain - 5 week treatment [2]: 321.9 ± 6.5 g
- Weight gain associated with low-dose treatment ([1]; 4 mg/day, after one year treatment): about 8 kg/year

SMILES: O=C(NCCC1CC1)c1ccc(N2CCN(C(=O)c3cc(F)ccc3C(F)(F)F)CC2)nn1 [XEN 1]
- Final Body Weight [2]: 312.2 ± 5.1 g
- Body Weight Gain - 5 week treatment [2]: 150.7 ± 3.5 g
- Plasma desaturation index (DI) C16:1n7/C16:0 (SCD enzyme): 0.043 +/− 0.004
- Plasma desaturation index (DI) C18:1n9/C18:0 (SCD enzyme): 5.874 +/− 0.422

SMILES: CCCCCCCCC1=C(CCCCCCC(=O)O)C1 [malvalic acid, 7-(2-octylcyclopropenyl)heptanoic acid]
- Inhibition of SCD activity (in words) (SCD): non-specifically inhibit SCD activity

SMILES: CC(=O)O[C@]1(C(C)=O)CC[C@H]2[C@@H]3C[C@H](C)C4=CC(=O)CC[C@]4(C)[C@H]3CC[C@@]21C [medroxyprogesterone acetate]
- Side Effect: increase in body weight ([1]; 6 months): 6.2% increase in

SMILES: CCCCCCCCC1=C(CCCCCCCC(=O)O)C1 [Sterculic acid, 8-(2-octylcyclopropenyl)octanoic acid]
- Inhibition of SCD activity (in words) (SCD): non-specifically inhibit SCD activity
